Test results from patent US8916551B2, “Heterocyclic compound and use thereof” (Takeda Pharmaceutical Company Limited, priority 2010, dated 2014).

Assays:
[1] = test system: methamphetamine (MAP)-induced hyperlocomotion in mice; test: Inhibition of methamphetamine (MAP)-induced hyperlocomotion; format: in vivo; settings: male ICR mice; compound 10 mg/kg p.o. 60 min before MAP 2 mg/kg s.c.; counts 120 min after MAP
Protocol: Male ICR mice were supplied by CLEA Japan, Inc (Japan). After arrival to the vivarium, animals were allowed a minimum of 1 week for acclimation. They were housed under a 12:12-h light/dark cycle in a temperature- and humidity-controlled laboratory and allowed food and water ad libitum.
A test compound was suspended in 0.5% methylcellulose in distilled water and orally administered (p.o.). Methamphetamine (Dainippon Sumitomo Pharma Co., Ltd.) was dissolved in saline and subcutaneously administered (s.c.). All drugs were dosed in a volume of 10 mL/kg body weight for mice.
The widely used animal models of psychosis have been the measurement of the extent of hyperlocomotion induced by psychostimulants (e.g., amphetamine, cocaine, methamphetamine, MK-801 and phencyclidine) in rodents (Psychopharmacology 1999, vol. 145: 237-250). 4 compounds (A, B, C, D) were tested for its ability to antagonize MAP-induced hyperlocomotion in mice. Male ICR mice were habituated in the locomotor chambers with infrared sensors (BrainScienceldea Co., Ltd. Japan) to the experiment. After the habituation, animals were treated with either vehicle or the compounds (10 mg/kg, p.o.), and MAP (2 mg/kg, s.c.) was administrated 60 min later. Locomotion activities were measured, and accumulated counts (120 min after administration of MAP) were calculated in each treatment group. All data were represented as means plus the standard errors of the means (n=3-9) and analyzed using Student's t-test with significance set at **P<0.01 and ***P<0.001 or Welch's t-test with significance set at ^$P<0.05, ^$$P<0.01 and ^$$$P<0.001.

[2] = target: T1, AMPA receptor (human GluR1 flip/stargazin expressed in CHO-K1 cells) (Homo sapiens, UniProt P42261); test: AMPA receptor function enhancing activity using calcium influx as index; format: cell-based; settings: 100% = 3 mM glutamic acid + 300 μM cyclothiazide, 0% = 3 mM glutamic acid only
T1 construct: expressed in transfected cells; host or cells: CHO-K1
How it was run: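 CHO-K1 clone stably co-expressing human GluR1 flip and stargazin, loaded with Calcium 4 dye plus probenecid. Compound at 30 μM was added with glutamate (3 mM final) and fluorescence change followed over 3 min. Activity is expressed as % of the 3 mM glutamate plus 300 μM cyclothiazide response, with glutamate alone as 0%.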

[3] = test compound 30 μM with 3 mM glutamic acid, change in fluorescence level in 3 min
[4] = test compound 30 μM with glutamic acid final 3 mM, change in fluorescence in 3 min

T1 sequence (P42261 19-906 isoform P42261-2 limits assumed): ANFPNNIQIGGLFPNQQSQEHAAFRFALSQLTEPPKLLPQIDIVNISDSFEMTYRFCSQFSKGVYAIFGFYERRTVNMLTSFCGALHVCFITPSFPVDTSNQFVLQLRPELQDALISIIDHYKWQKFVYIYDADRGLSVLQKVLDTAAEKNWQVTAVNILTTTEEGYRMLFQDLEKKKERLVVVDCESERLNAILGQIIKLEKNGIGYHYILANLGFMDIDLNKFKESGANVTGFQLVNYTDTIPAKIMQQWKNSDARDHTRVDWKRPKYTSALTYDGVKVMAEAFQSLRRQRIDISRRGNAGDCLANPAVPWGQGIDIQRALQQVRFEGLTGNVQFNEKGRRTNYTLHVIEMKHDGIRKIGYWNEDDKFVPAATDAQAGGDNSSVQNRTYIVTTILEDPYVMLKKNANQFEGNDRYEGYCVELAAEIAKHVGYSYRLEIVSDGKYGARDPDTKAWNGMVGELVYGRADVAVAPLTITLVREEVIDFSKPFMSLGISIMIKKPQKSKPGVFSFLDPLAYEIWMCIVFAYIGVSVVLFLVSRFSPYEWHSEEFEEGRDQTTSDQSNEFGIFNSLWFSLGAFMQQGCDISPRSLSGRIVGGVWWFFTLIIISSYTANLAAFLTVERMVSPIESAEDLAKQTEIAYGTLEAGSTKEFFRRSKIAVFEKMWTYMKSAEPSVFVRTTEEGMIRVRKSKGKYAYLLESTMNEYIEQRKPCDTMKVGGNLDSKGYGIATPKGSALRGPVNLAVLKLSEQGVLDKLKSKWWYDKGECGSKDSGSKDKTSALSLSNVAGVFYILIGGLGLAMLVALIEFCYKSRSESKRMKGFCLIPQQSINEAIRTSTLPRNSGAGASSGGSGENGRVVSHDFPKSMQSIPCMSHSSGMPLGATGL
T1 sequence (Q9Y698 whole entry partner): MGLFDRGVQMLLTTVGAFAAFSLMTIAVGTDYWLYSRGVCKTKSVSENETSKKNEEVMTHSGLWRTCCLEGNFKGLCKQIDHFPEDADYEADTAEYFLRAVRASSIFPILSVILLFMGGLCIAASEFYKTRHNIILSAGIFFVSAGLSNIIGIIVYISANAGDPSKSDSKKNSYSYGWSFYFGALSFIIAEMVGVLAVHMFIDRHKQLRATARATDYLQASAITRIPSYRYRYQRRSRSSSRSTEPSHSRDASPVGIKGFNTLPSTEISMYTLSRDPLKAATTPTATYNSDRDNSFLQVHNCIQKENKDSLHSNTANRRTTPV

Row | SMILES | melting point [°C] | activity (%) [2, 3] [%] | activity (%) [2, 4] [%] | inhibition of MAP-induced hyperlocomotion (accumulated locomotion counts 0-120 min) [1]
1 | O=S1(=O)CCN2C=CC=C(c3ccc(OC4CCCCC4)cc3)C2=N1 [D, 9-[4-(cyclohexyloxy)phenyl]-3,4-dihydropyrido[2,1-c][1,2,4]thiadiazine 2,2-dioxide] |  |  |  | significant inhibition
2 | Cc1ccc(Oc2ccc(C3=CC=CN4CCS(=O)(=O)N=C34)cc2)cc1 [B, 9-[4-(4-methylphenoxy)phenyl]-3,4-dihydropyrido[2,1-c][1,2,4]thiadiazine 2,2-dioxide] |  |  |  | significant inhibition
3 | O=S1(=O)CCN2C=CC=C(c3ccc(Oc4ccccc4)cc3)C2=N1 [A, 9-(4-phenoxyphenyl)-3,4-dihydropyrido[2,1-c][1,2,4]thiadiazine 2,2-dioxide] |  |  |  | significant inhibition
4 | N#Cc1ccc(Oc2ccc(C3CCCN4CCS(=O)(=O)N=C34)cc2)cc1Cl (centres unmarked) [Example 183, 2-chloro-4-[4-(2,2-dioxido-3,4,6,7,8,9-hexahydropyrido[2,1-c][1,2,4]thiadiazin-9-yl)phenoxy]benzonitrile] | 219 to 220 | 91 |  | 
5 | O=S1(=O)CCN2CCCC(c3ccc(Oc4ccc(C(F)(F)F)cc4)cc3)C2=N1 (centres unmarked) [Example 125, 9-{4-[4-(trifluoromethyl)phenoxy]phenyl}-3,4,6,7,8,9-hexahydropyrido[2,1-c][1,2,4]thiadiazine 2,2-dioxide] | 191 to 193 |  | 53 | 
6 | CC1=CN2CCS(=O)(=O)N=C2C(c2ccc(OC3CCCCC3)cc2)=N1 [C, 9-[4-(cyclohexyloxy)phenyl]-7-methyl-3,4-dihydropyrazino[2,1-c][1,2,4]thiadiazine 2,2-dioxide] |  |  |  | significant inhibition
7 | O=S1(=O)CCN2C=CC=C(c3ccc(Oc4ccccc4)cc3)C2=N1 [Example 31, 9-(4-phenoxyphenyl)-3,4-dihydropyrido[2,1-c][1,2,4]thiadiazine 2,2-dioxide] | 252 to 253 |  | 79 | 
8 | Cc1ccc(Oc2ccc(C3=CC=CN4CCS(=O)(=O)N=C34)cc2)cc1 [Example 107, 9-[4-(4-methylphenoxy)phenyl]-3,4-dihydropyrido[2,1-c][1,2,4]thiadiazine 2,2-dioxide] | 248 to 249 |  | 69 | 
9 | CC(C)c1ccc(OCC2=CC=CN3CCS(=O)(=O)N=C23)cc1 [Example 61, 9-{[4-(1-methylethyl)phenoxy]methyl}-3,4-dihydropyrido[2,1-c][1,2,4]thiadiazine 2,2-dioxide] | 212 to 214 |  | 75 | 
10 | O=S1(=O)CCN2C=C(Cl)C=C(c3ccc(Oc4ccnc(C(F)(F)F)c4)cc3)C2=N1 [Example 79, 7-chloro-9-(4-{[2-(trifluoromethyl)pyridin-4-yl]oxy}phenyl)-3,4-dihydropyrido[2,1-c][1,2,4]thiadiazine 2,2-dioxide] | 239 to 240 |  | 90 | 

More lines, main results first:

Row | melting point [°C] | activity (%) [2, 3] [%] | activity (%) [2, 4] [%] | SMILES | inhibition of MAP-induced hyperlocomotion (accumulated locomotion counts 0-120 min) [1]
11 | 289 to 290 | 87 |  | O=S1(=O)CCN2C=CC=C(c3ccc(Oc4ccc(O)cc4)cc3)C2=N1 [Example 198, 4-[4-(2,2-dioxido-3,4-dihydropyrido[2,1-c][1,2,4]thiadiazin-9-yl)phenoxy]phenol] | 
12 | 92 to 92.5 | 78 |  | CC1=CN2CCS(=O)(=O)N=C2C(c2ccc(Oc3ccccc3)cc2)=N1 [Example 207, 7-methyl-9-(4-phenoxyphenyl)-3,4-dihydropyrazino[2,1-c][1,2,4]thiadiazine 2,2-dioxide] | 
13 | 238 to 239 |  | 80 | O=S1(=O)CCN2CCCC(c3ccc(-c4ccccc4)cc3)C2=N1 (centres unmarked) [Example 28, 9-biphenyl-4-yl-3,4,6,7,8,9-hexahydropyrido[2,1-c][1,2,4]thiadiazine 2,2-dioxide] | 
14 | 266 to 267 | 79 |  | O=S1(=O)CCN2C=CC=C(c3ccc(Oc4ccc(F)cc4)cc3)C2=N1 [Example 199, 9-[4-(4-fluorophenoxy)phenyl]-3,4-dihydropyrido[2,1-c][1,2,4]thiadiazine 2,2-dioxide] | 
15 | 244 to 245 | 74 |  | O=S1(=O)CCN2C=CC=C(c3ccc(Oc4ccccc4)nc3)C2=N1 [Example 191, 9-(6-phenoxypyridin-3-yl)-3,4-dihydropyrido[2,1-c][1,2,4]thiadiazine 2,2-dioxide] | 
